Results from patent US20140335019A1, “COMPOSITIONS AND METHODS FOR THE TREATMENT AND ANALYSIS OF NEUROLOGICAL DISORDERS” (THE REGENTS OF THE UNIVERSITY OF MICHIGAN, priority 2011, published 2014).
“Also recorded” adds a separate entry of the source.

Key:
[1] = test system: human SK-N-BE(2)-M17 (M17) neuroblastoma cells; details: for concentration with no toxicity: human, 24 h
Experimental: (§2) Preliminary cytotoxicity studies of the compounds in human SK-N-BE(2)-M17 (M17) neuroblastoma cells were carried out using a standard colorimetric assay for measuring cell growth (i.e., MTT assay; MTT=3-(4,5-dimethylthiazol-2-yl)-2,5-diphenyltetrazolium bromide).

[2] = test system: Aβ species in human AD brain tissue homogenates; assay: treatment of human AD brain tissue homogenates, Western blotting with 6E10; assay type: biochemical; details: 24 h treatment, frontal cortex homogenates
Source text: The frontal cortex section of the human AD brain was selected because it generally contains high amounts of Aβ aggregates. […] Also, using these compounds, similar to in vitro disaggregation studies with synthetic Aβ peptide above, perturbing metal-Aβ interaction is contemplated to find use for disassembling Aβ aggregates in brain tissue.

[3] = test system: Tg2576 hAPP-transgenic mice; assay: in vivo activity in Tg2576 hAPP-transgenic mice (4G8 and Congo red staining of brain slices); details: 1 mg/kg oral gavage every two days for two months; relative to control vehicle; p<0.01
Experimental: During the development of embodiments of the technology provided herein, experiments were conducted to verify the efficacy of pharmaceutical compositions according to the technology by testing in a murine model. Pharmaceutical compositions comprising compounds described herein were administered every two days at 1 mg/kg (0.1 ml/10 g body weight) to four female Tg2576 hAPP-transgenic mice (18 months old) for two months (total 30 times in 60 days) by oral gavage.
Efficacy was evaluated after drug administration. Tissue slices […] long were prepared from cerebrums of Tg2576 mice by a procedure comprising rapid freezing and cutting using a cryostat. To verify the degree of amyloid beta accumulation, the brain tissue slices were stained by APP/Aβ17-24-immunospecific antibody 4G8. In addition, to identify the amount of mature amyloid plaques that were generated in the presence of Apolipoprotein E (ApoE), sample were stained with Congo red.

[4] = target: Aβ monomer pretreated with ZnCl2 (Homo sapiens, UniProt P05067); assay: NMR studies of compound with Aβ monomer pretreated with ZnCl2; assay type: binding
Source text: (§1) While an understanding of the mechanism is not necessary to practice the invention and the invention is not limited to any particular mechanism of action, these observations imply that the compounds may target metal ions associated with Aβ species.

[5] = solution speciation by UV-vis variable-pH titrations; assay type: physicochemical; details: physiological pH (ca. 7.4)
[6] = test system: M17 cells; assay: cytotoxicity of metal (CuII or ZnII)-associated Aβ species with compounds, MTT assay; assay type: cell-based, human; details: Aβ 20 μM, metal ions 20 μM, compound 40 μM, 24 h
Experimental: Then, the cells were incubated for 24 h.
as §2

[7] = target: Aβ aggregates (Homo sapiens, UniProt P05067); assay: ELISA of interaction with Aβ aggregates; assay type: binding; details: similar to ThT
Source text: as §1

[8] = test system: Aβ species; details: cited from earlier work
[9] = in vivo biodistribution of radiolabeled compound; design: species or system C57B1/6 mice
Experimental: Healthy female C57B1/6 mice (n=18) were administered by bolus intravenous injection with [^3H]-3b (2.5 μCi) each. The mice were divided into 3 groups of 6. Each group was sacrificed at 10 min, 60 min and 120 min post injection. Biodistribution was carried out by harvesting blood from cardiac puncture and tissue (liver, heart, kidneys, lungs, small intestine, muscle, spleen, feces, bladder, bone and brain). The brain was divided into four different sections (cerebellum, frontal cortex, parietal cortex and striatum). The tissue was digested and counted for accumulated activity.

Chain of Aβ monomer pretreated with ZnCl2 (P05067 672-711 limits assumed): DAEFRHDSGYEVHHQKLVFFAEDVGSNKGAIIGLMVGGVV
Chain of Aβ aggregates (P05067 672-711 limits assumed): as above

CN(C)c1ccc(N=Cc2ccccn2)cc1 [2b, N^1,N^1-dimethyl-N^4-(pyridin-2-ylmethylene)benzene-1,4-diamine]
cytotoxicity compared with CQ [1]: less cytotoxic than CQ
concentration with no toxicity [1]: up to 100 μM

CN(C)c1ccc(NCc2ccccn2)cc1 [3b, N^1,N^1-Dimethyl-N^4-(pyridin-2-ylmethyl)benzene-1,4-diamine]
Aβ species visualized by Western blotting with 6E10 [2]: more gel-permeable and lower MW Aβ species
Aβ immunoreactivity (4G8 staining) [3]: reduced
congophilicity (Congo red staining) [3]: reduced
complex formation with ZnII-pretreated Aβ monomer [4]: a ternary complex containing Aβ, ZnII, and the molecule may be generated
main species in solution [5]: neutral form
toxicity induced by metal-Aβ [6]: capable of reducing metal-Aβ neurotoxicity; also recorded: noticeably diminished toxicity
concentration with no toxicity [1]: up to 40 μM
interaction with Aβ aggregates (ELISA) [7]: interacted with Aβ aggregates

CN(C)c1ccc(-c2cn3cc(I)ccc3n2)cc1 [IMPY, 4-(6-iodoimidazo[1,2-α]pyridin-2-yl)-N,N-dimethylaniline]
binding affinity to Aβ species [8]: strong binding affinity

CN(C)c1ccc(NCc2ccccn2)cc1 [[^3H]-3b]
BBB crossing ([9]; bolus intravenous injection, 2.5 μCi, 10, 60 and 120 min post injection): can cross the BBB
brain uptake ([9]; cerebellum, frontal cortex, parietal cortex, striatum, 10, 60, 120 min): relatively consistent within the time points chosen

CN(C)c1ccc(/C=C/c2ccc(I)cc2)cc1 [p-1-stilbene, (E)-4-(4-iodostyryl)-N,N-dimethylaniline]
binding affinity to Aβ species [8]: strong binding affinity
